Columns and labels:
[1] = system: reverse transcriptase from RMuLV; experiment: Cell-free reverse transcriptase inhibition, RMuLV; assay type: biochemical, Rauscher murine leukemia virus; conditions: template/primer (rA)n.(dT)10
Protocol: (§1) Reverse transcriptase from various retroviruses have been tested in cell-free assays for inhibition by phosphonoformic acid and phosphonoacetic acid. The assay conditions have been described by Collaborative Research, Inc, 1365 Main Street, Waltham, Mass., USA "Assay kit for mammalian viral reverse transcriptase". BLV and VV were prepared in this laboratory and all other viruses and viral enzyme were obtained from Dr. K Nilsson, Department of Pathology, University of Uppsala and from Boehringer Mannheim, Germany. Phosphonoformic acid (PFA) and phosphonoacetic acid (PAA) were added at pH 7.2 to the reaction mixtures at the start of the reaction.
(§2) Rauscher murine leukemia virus; RMuLV, visna virus; VV, avian myeloblastosis virus; AMV, bovine leukemia virus; BLV, baboon endogenous virus; BaEV, simian sarcoma virus; SSV.

[2] = molecular target: T1, reverse transcriptase from VV (Maedi visna virus, UniProt P03370); experiment: Cell-free reverse transcriptase inhibition, VV; assay type: biochemical; conditions: template/primer (rA)n.(dT)10, read-out: Percent inhibition
T1 construct: Reverse transcriptase from various retroviruses have been tested in cell-free assays; made in house
T1 sequence (P03370 541-1111): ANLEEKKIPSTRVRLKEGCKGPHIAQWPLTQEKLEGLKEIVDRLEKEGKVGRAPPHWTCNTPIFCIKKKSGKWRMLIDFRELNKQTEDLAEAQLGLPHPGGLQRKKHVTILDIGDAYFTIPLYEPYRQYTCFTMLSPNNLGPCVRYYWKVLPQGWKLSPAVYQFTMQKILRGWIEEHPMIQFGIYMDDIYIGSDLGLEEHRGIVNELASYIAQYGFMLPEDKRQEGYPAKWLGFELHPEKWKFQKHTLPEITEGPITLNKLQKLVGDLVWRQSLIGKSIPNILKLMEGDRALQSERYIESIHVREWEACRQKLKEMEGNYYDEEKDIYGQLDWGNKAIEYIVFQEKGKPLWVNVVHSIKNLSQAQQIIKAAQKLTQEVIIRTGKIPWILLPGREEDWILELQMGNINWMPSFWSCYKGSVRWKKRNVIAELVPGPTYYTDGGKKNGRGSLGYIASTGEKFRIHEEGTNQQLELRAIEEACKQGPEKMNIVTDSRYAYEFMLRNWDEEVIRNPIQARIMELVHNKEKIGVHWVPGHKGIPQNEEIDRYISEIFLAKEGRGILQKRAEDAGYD
Protocol: as §1, §2

[3] = molecular target: T2, reverse transcriptase from BLV (Bovine leukemia virus, UniProt P03361); experiment: Cell-free reverse transcriptase inhibition, BLV; assay type: biochemical; conditions: template/primer (rA)n.(dT)10, read-out: Percent inhibition
T2 construct: Reverse transcriptase from various retroviruses have been tested in cell-free assays; made in house
T2 sequence (P03361 546-1120): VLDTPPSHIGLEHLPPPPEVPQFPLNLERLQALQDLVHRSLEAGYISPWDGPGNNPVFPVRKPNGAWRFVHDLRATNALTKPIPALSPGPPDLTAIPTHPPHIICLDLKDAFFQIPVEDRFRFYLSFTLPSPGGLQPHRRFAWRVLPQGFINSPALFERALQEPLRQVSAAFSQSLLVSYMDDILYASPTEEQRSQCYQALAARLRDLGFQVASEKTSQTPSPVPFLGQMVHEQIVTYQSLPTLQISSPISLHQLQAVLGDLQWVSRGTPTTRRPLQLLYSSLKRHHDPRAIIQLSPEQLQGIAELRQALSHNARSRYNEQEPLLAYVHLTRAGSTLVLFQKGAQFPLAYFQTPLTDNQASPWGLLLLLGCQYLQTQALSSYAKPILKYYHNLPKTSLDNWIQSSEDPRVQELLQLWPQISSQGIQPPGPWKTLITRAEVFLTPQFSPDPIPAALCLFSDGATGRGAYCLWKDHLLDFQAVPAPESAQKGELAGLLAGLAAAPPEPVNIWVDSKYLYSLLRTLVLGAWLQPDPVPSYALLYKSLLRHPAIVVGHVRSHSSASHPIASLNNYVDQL
Protocol: as §1, §2

[4] = molecular target: T3, reverse transcriptase from BaEV (Baboon endogenous virus, UniProt P10272); experiment: Cell-free reverse transcriptase inhibition, BaEV; assay type: biochemical; conditions: template/primer (rA)n.(dT)10, read-out: Percent inhibition
T3 construct: Reverse transcriptase from various retroviruses have been tested in cell-free assays
T3 sequence (P10272 659-1335): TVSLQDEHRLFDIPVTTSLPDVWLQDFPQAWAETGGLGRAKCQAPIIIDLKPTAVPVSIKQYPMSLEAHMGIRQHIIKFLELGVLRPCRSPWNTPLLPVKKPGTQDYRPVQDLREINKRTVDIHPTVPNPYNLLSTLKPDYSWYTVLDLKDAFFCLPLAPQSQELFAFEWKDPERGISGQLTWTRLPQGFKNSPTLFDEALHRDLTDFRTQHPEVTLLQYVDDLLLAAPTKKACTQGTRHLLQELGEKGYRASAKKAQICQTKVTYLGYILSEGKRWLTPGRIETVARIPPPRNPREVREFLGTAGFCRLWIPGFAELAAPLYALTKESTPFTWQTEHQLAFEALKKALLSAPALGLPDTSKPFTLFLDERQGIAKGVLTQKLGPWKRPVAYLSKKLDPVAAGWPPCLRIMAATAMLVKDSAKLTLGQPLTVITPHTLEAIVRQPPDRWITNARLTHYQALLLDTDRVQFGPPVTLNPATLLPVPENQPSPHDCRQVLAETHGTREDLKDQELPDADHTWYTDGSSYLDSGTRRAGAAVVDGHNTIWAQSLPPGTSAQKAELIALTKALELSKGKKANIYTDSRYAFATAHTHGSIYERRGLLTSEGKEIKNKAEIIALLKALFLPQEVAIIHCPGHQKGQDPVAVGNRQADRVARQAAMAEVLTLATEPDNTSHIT
Protocol: as §1, §2

[5] = molecular target: T4, reverse transcriptase from SSV (Woolly monkey sarcoma virus, UniProt P03359); experiment: Cell-free reverse transcriptase inhibition, SSV; assay type: biochemical, simian sarcoma virus; conditions: template/primer (rA)n.(dT)10, read-out: Percent inhibition
T4 construct: Reverse transcriptase from various retroviruses have been tested in cell-free assays
T4 sequence (P03359 642-1310): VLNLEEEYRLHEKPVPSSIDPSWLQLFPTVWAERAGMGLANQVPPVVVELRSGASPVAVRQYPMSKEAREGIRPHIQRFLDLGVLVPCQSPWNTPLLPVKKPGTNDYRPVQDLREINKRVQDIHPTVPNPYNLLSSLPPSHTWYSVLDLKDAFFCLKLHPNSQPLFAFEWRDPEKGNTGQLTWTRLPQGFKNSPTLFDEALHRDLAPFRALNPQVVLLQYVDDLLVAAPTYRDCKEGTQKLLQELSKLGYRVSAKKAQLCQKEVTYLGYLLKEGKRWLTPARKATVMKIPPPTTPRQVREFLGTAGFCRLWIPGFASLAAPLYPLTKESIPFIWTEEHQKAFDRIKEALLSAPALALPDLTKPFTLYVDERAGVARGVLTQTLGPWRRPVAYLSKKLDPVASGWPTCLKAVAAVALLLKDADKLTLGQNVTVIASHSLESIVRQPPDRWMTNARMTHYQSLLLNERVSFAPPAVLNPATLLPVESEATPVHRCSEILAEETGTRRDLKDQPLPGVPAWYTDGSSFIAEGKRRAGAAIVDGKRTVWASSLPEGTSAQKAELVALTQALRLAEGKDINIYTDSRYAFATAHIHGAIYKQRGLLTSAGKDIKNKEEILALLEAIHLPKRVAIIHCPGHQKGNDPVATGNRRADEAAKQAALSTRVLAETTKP
Protocol: as §1, §2

[6] = system: reverse transcriptase from AMV; experiment: Cell-free reverse transcriptase inhibition, AMV; assay type: biochemical, avian myeloblastosis virus
Protocol: as §1, §2

visna virus = experiment: Visna virus growth in sheep choroid plexus (SCP) cells: virus titre and morphological changes; assay type: cell-based; conditions: 500 μM
Protocol: Visna virus is a retrovirus that can multiply in sheep choroid (SCP) cells. The infection can be followed by titrating medium from infected cells to determine the formation of virus particles and by observing morphological changes as syncytial formation and cell degeneration.
Plates (5 cm) with primary SCP cells in medium 199 with 10% sheep serum were grown to confluence and then infected with 1×10^6 TCID50 (tissue culture infectious doses) of visna virus. One set of plates were left untreated, one set received different concentrations of phosphonoformic acid (PFA) at pH 7.2. Another set received phosphonoacetic acid (PAA) at pH 7.2. Uninfected plates were used as controls with and without PFA and PAA. The virus titre was determined 5 days after infection by the end-point titration method. The plates were checked daily in a light microscope to observe morphological changes.

[7] = guinea pig, in vivo
Protocol: Phosphonoformic acid and phosphonoacetic acid were used as their trisodium and disodium salts, respectively. The test substances were used in 1% solutions.
Guinea-pigs of the Dunkin-Hartley strain of both sexes and weighing 200-300 g were used. The back of the animal was shaved and depilated with Opilca® on the day before starting the application of the solutions. The back was divided into six squares in the middle of which 30 μl of the test solutions was applied. In a given group of animals the different solutions were applied in a randomized order alternating between sites. However, the same site was used for repeated application of a given solution.
The irritation was scored on scales of 0 to 3, each grade corresponding to the following specific criteria of irritation:
1=slight erythema or edema or no hair growth
2=moderate erythema or edema or skin discoloration
3=marked erythema or edema or necrosis including crust formation.
The scoring was carried out blindly using coded solutions.
The scores of all the applications for a given solution and time were added and the average score was calculated.
The solvent used was a mixture of glycerol 10.0% (w/v), Tween 80 0.1% and aq sterile ad 100. All solutions were adjusted to pH 6.5 with hydrochloric acid or aqueous sodium hydroxide as required. Thirty μl of 1.0% solutions of phosphonoformic acid and phosphonoacetic acid respectively was applied twice daily during three days to each of six guinea pigs.

[8] = set-up: species or system Cynomolgus monkeys; conditions: cynomolgus monkey, in vivo
Protocol: Phosphonoformic acid, also denoted PFA and phosphonoacetic acid, also denoted PAA were used in the form of their trisodium and disodium salt, respectively. The following equimolar compositions of the two test compounds were used: […]
Two adult male Cynomolgus monkeys were treated once daily for 7 days with PFA or PAA in Arlatone cream. Treatment was done both by topical application of 0.2 ml cream on an area of 3×7 cm on the upper part of the arms and by application of 0.2 ml of cream on the penis and the adjacent skin. During application of cream, the animals were lightly anaesthetized with Ketalar®, given intramuscularly. All applications were 0.2 ml each on day 6/3, 7/3, 8/3, 9/3, 10/3, 11/3 and 12/3 1978.

O=C(O)CP(=O)(O)O [phosphonoacetic acid, reference compound]
Percent inhibition ([1]; 10 μM): 0% | Percent inhibition ([1]; 100 μM): 10% | Percent inhibition ([1]; 500 μM): 35% | inhibition at 100 µM ([2]; 100 μM): 25% | inhibition at 500 µM ([2]; 500 μM): 3% | inhibition at 100 µM ([3]; 100 μM): 0% | inhibition at 500 µM ([3]; 500 μM): 10% | inhibition at 10 µM ([4]; 10 μM): 5% | inhibition at 100 µM ([4]; 100 μM): 58% | inhibition at 500 µM ([4]; 500 μM): 71% | inhibition at 10 µM ([5]; 10 μM): 0% | inhibition at 100 µM ([5]; 100 μM): 44% | inhibition at 500 µM ([5]; 500 μM): 58% | Percent inhibition ([6]; 10 μM, endogenous template): 0% | Percent inhibition ([6]; 10 μM, purified enzyme, (rA)n.(dT)10): 0% | Percent inhibition ([6]; 10 μM, template/primer (rA)n.(dT)10): 0% | Percent inhibition ([6]; 100 μM, endogenous template): -2% | Percent inhibition ([6]; 100 μM, purified enzyme, (rA)n.(dT)10): 0% | Percent inhibition ([6]; 100 μM, template/primer (rA)n.(dT)10): -34% | Percent inhibition ([6]; 500 μM, endogenous template): -3% | Percent inhibition ([6]; 500 μM, purified enzyme, (rA)n.(dT)10): 19% | Percent inhibition ([6]; 500 μM, template/primer (rA)n.(dT)10): -86% | effect on virus multiplication (visna virus; SCP cells): does not prevent virus multiplication | Morphological changes Day 3 (visna virus; Visna virus infected cells): + (10% cell degeneration) | Morphological changes Day 5 (visna virus; Visna virus infected cells): ++ (25% cell degeneration) | Morphological changes Day 7 (visna virus; Visna virus infected cells): ++++ (100% cell degeneration) | skin condition after two weeks [7]: the skin heals after about two weeks but remains hairless | skin irritation score ([7]; pH 6.5): 2-3 score | Result (skin irritation), area of application penis [8]: Glans penis and adjacent skin areas irritated 9/3-12/3 Adjacent skin areas also showed symptoms 23/3

Source: US4771041A, “Method for combating virus infection” (priority 1976, dated 1988)
